{"source": "patent US20060211733A1", "about": "“Methods of preventing and treating opioid bowel dysfunction” (Adolor Corporation, priority 2005, published 2006)", "tested_on": "opioid-induced bowel dysfunction in non-malignant pain subjects", "assay": "six-week, randomized, double-blind, placebo-controlled study of three alvimopan dosage regimens", "assay_type": "in vivo, human", "description": "A six-week, randomize, double-blind, placebo-controlled study was conducted to evaluate three dosage regimens for [[(2S)-2-[[(3R,4R)-4-(3-hydroxyphenyl)-3,4-dimethylpiperidin-1-yl]methyl]-3-phenylpropanoyl]amino]acetic acid dihydrate (alvimopan) for the treatment of opioid-induced bowel dysfunction in non-malignant pain subjects, including an evaluation of the improvement of spontaneous bowel movement (SBM) frequency compared to placebo while maintaining an acceptable tolerability profile.\nSubjects meeting the initial screening criteria for the study population, and who had been administered chronic opioid therapy for non-malignant pain, were selected.", "data": [{"smiles": "C[C@H]1CN(C[C@H](Cc2ccccc2)C(=O)NCC(=O)O)CC[C@@]1(C)c1cccc(O)c1.O.O", "note": "[alvimopan, [[(2S)-2-[[(3R,4R)-4-(3-hydroxyphenyl)-3,4-dimethylpiperidin-1-yl]methyl]-3-phenylpropanoyl]amino]acetic acid dihydrate]", "values": [{"measurement": "efficacy", "setting": "0.5 mg BID", "result": "comparable to 1 mg QD or 1 mg BID"}, {"measurement": "safety profile", "setting": "0.5 mg BID", "result": "comparable to the placebo"}, {"measurement": "primary and key secondary endpoints (spontaneous bowel movement frequency) compared to placebo", "setting": "all three doses (0.5 mg BID, 1 mg QD, 1 mg BID), subjects on chronic opioid therapy", "result": "significantly better, both clinically and statistically, than the placebo"}, {"measurement": "tolerability", "setting": "all treatment arms", "result": "well-tolerated"}, {"measurement": "analgesic antagonism", "setting": "based on changes in pain scores or opioid consumption during the study", "result": "no evidence of analgesic antagonism"}, {"measurement": "rebound post active treatment", "setting": "non-treatment follow-up period", "result": "no evidence of rebound"}, {"measurement": "tachyphylaxis", "setting": "over six-week treatment period", "result": "no evidence of tachyphylaxis"}, {"measurement": "onset and duration of treatment effects", "setting": "six-week treatment period", "result": "significant at week 1 and were sustained over the entire six-week treatment period"}]}]}
